Where two headings read alike, the source gives them in different places.
What was measured:
Type in all cases: cell-based
[1] = tested on: acute myeloid leukemia cells (MOLM-13); assay: In vitro potency (CellTiter-Glo, 96 h), MOLM-13; conditions: Homo sapiens, MOLM-13, 96 h
Method: (§1) In vitro potency was assessed on multiple cancer cell lines. All cell lines were authenticated by STR profiling at IDEXX Bioresearch and cultured for no more than 2 months after resuscitation. Cells cultured in log-phase growth were seeded for 24 hours in 96-well plates containing […] RPMI 1640 supplemented with 20% FBS. Serial dilutions of antibody-drug conjugates in cell culture media were prepared at 4× working concentrations, and 50 μL of each dilution was added to the 96-well plates. Following addition of test articles, cells were incubated with test articles for 4 days at 37 0° C. After 96 hours, growth inhibition was assessed by CellTiterGlo® (Promega, Madison, WI) and luminescence was measured on a plate reader.
(§2) In Table 7, IC50 values for ADCs are given in ng/mL. Cell viability was determined by CellTiter-Glo staining after 96 h exposure to ADC. ND=Not Determined. Ag2 is an antibody targeting a ubiquitous and readily internalizable antigen. The cancer cell lines tested are renal carcinoma cells (786-0), melanoma cells (A2058), pancreatic cancer cells (BxPC3), non-small-cell lung cancer cells (Calu1), anaplastic large cell lymphoma cells (DEL, DELBVR, Karpas299), Hodgkin's lymphoma cells (L540cy), (Ls174T), breast cancer cells (MDA-MB-231), acute myeloid leukemia cells (MOLM-13), and B-lymphocyte cancer cells (SU-DHL4).
as §1, with “FBS.” for “FBS. Serial dilutions of antibody-drug conjugates in cell culture media were prepared at 4× working concentrations, and 50 μL of each dilution was added to the 96-well plates.”
(§3) Cell viability was determined by CellTiter-Glo staining after 96 h exposure to the compound. ND=Not Determined. The cancer cell lines tested are renal carcinoma cells (786-0), melanoma cells (A2058), pancreatic cancer cells (BxPC3), non-small-cell lung cancer cells (Calu1), anaplastic large cell lymphoma cells (DEL, DELBVR, Karpas299), Hodgkin's lymphoma cells (L540cy), (Ls 174T), breast cancer cells (MDA-MB-231), acute myeloid leukemia cells (MOLM-13), B-lymphocyte cancer cells (SU-DHL4), multiple myeloma cells (MM.1R), (U266), and melanoma cells (SK-MEL-5).
as §1, with “37°” for “37 0°”
(§4) In the following Tables IC50 values for ADCs and CPT free drugs are given in ng/mL and nmol/L concentrations. Cell viability was determined by CellTiter-Glo staining after 96 h exposure to ADC or CPT free drug.
(§5) Cell viability was determined by CellTiter-Glo staining after 96 h exposure to ADC. ND=Not Determined.

[2] = tested on: B-lymphocyte cancer cells (SU-DHL4); assay: In vitro potency (CellTiter-Glo, 96 h), SU-DHL-4; conditions: Homo sapiens, SU-DHL-4, 96 h
Method: as §1, §2
as §1, with “FBS.” for “FBS. Serial dilutions of antibody-drug conjugates in cell culture media were prepared at 4× working concentrations, and 50 μL of each dilution was added to the 96-well plates.”
as §3
as §1, with “37°” for “37 0°”
as §4, §5

[3] = tested on: renal carcinoma cells (786-O); assay: In vitro potency (CellTiter-Glo, 96 h), 786-O; conditions: Homo sapiens, 786-0, 96 h
Method: as §1, §2
as §1, with “FBS.” for “FBS. Serial dilutions of antibody-drug conjugates in cell culture media were prepared at 4× working concentrations, and 50 μL of each dilution was added to the 96-well plates.”
as §3
as §1, with “37°” for “37 0°”
as §4, §5

[4] = tested on: anaplastic large cell lymphoma cells (Karpas299); assay: In vitro potency (CellTiter-Glo, 96 h), Karpas299; conditions: Homo sapiens, KARPAS-299, 96 h
Method: as §1, §2
as §1, with “FBS.” for “FBS. Serial dilutions of antibody-drug conjugates in cell culture media were prepared at 4× working concentrations, and 50 μL of each dilution was added to the 96-well plates.”
as §3
as §1, with “37°” for “37 0°”
as §4, §5

[5] = tested on: Hodgkin's lymphoma cells (L540cy); assay: In vitro potency (CellTiter-Glo, 96 h), L540cy
Method: as §1, §2
as §1, with “FBS.” for “FBS. Serial dilutions of antibody-drug conjugates in cell culture media were prepared at 4× working concentrations, and 50 μL of each dilution was added to the 96-well plates.”
as §3
as §1, with “37°” for “37 0°”
as §4, §5

[6] = tested on: anaplastic large cell lymphoma cells (DEL); assay: In vitro potency (CellTiter-Glo, 96 h), DEL
Method: as §1, §2
as §1, with “FBS.” for “FBS. Serial dilutions of antibody-drug conjugates in cell culture media were prepared at 4× working concentrations, and 50 μL of each dilution was added to the 96-well plates.”
as §3
as §1, with “37°” for “37 0°”
as §4, §5

[7] = tested on: anaplastic large cell lymphoma cells (DELBVR); assay: In vitro potency (CellTiter-Glo, 96 h), DELBVR
Method: as §1, §2
as §1, with “FBS.” for “FBS. Serial dilutions of antibody-drug conjugates in cell culture media were prepared at 4× working concentrations, and 50 μL of each dilution was added to the 96-well plates.”
as §3
as §1, with “37°” for “37 0°”
as §4, §5

[8] = tested on: pancreatic cancer cells (BxPC3); assay: In vitro potency (CellTiter-Glo, 96 h), BxPC3; conditions: Homo sapiens, BXPC-3, 96 h
Method: as §1, §2
as §1, with “FBS.” for “FBS. Serial dilutions of antibody-drug conjugates in cell culture media were prepared at 4× working concentrations, and 50 μL of each dilution was added to the 96-well plates.”
as §3
as §1, with “37°” for “37 0°”
as §4, §5

melanoma cells (A2058) = assay: In vitro potency (CellTiter-Glo, 96 h), A2058; conditions: Homo sapiens, A2058, 96 h, read-out: A2058 IC50
Method: as §1, §2
as §1, with “FBS.” for “FBS. Serial dilutions of antibody-drug conjugates in cell culture media were prepared at 4× working concentrations, and 50 μL of each dilution was added to the 96-well plates.”
as §3
as §1, with “37°” for “37 0°”
as §4, §5

Ls174T cells = assay: In vitro potency (CellTiter-Glo, 96 h), Ls174T; conditions: Homo sapiens, LS174T, 96 h
Method: as §1, §2
as §1, with “FBS.” for “FBS. Serial dilutions of antibody-drug conjugates in cell culture media were prepared at 4× working concentrations, and 50 μL of each dilution was added to the 96-well plates.”
as §3
as §1, with “37°” for “37 0°”
as §4, §5

[9] = tested on: breast cancer cells (MDA-MB-231); assay: In vitro potency (CellTiter-Glo, 96 h), MDA-MB-231; conditions: Homo sapiens, MDA-MB-231, 96 h
Method: as §1, §2
as §1, with “FBS.” for “FBS. Serial dilutions of antibody-drug conjugates in cell culture media were prepared at 4× working concentrations, and 50 μL of each dilution was added to the 96-well plates.”
as §3
as §1, with “37°” for “37 0°”
as §4, §5

[10] = tested on: non-small-cell lung cancer cells (Calu1); assay: In vitro potency (CellTiter-Glo, 96 h), Calu1; conditions: Homo sapiens, Calu-1, 96 h, Table 28; CPT free drugs; non-small-cell lung cancer cells Calu1; 96 h, CellTiter-Glo; read-out: Calu1 IC50
Method: as §1, §2
as §1, with “FBS.” for “FBS. Serial dilutions of antibody-drug conjugates in cell culture media were prepared at 4× working concentrations, and 50 μL of each dilution was added to the 96-well plates.”
as §3
as §1, with “37°” for “37 0°”
as §4, §5

[11] = read-out: MOLM-13 IC50, camptothecin free drug, 96 h
[12] = read-out: SU-DHL-4 IC50, camptothecin free drug, 96 h
[13] = read-out: 786-O IC50, camptothecin free drug, 96 h
[14] = read-out: Karpas299 IC50, camptothecin free drug, 96 h
[15] = read-out: L540cy IC50, camptothecin free drug, 96 h
[16] = read-out: DEL IC50, camptothecin free drug, 96 h
[17] = read-out: DELBVR IC50, camptothecin free drug, 96 h
[18] = read-out: BxPC3 IC50, camptothecin free drug, 96 h
[19] = read-out: Ls174T IC50, camptothecin free drug, 96 h
[20] = read-out: MDAMB231 IC50, camptothecin free drug, 96 h

SMILES	IC50 [1, 11] [nM]	IC50 [2, 12] [nM]	IC50 [3, 13] [nM]	IC50 [4, 14] [nM]	IC50 [5, 15] [nM]	IC50 [6, 16] [nM]	IC50 [7, 17] [nM]	IC50 [8, 18] [nM]	IC50 (melanoma cells (A2058)) [nM]	IC50 (Ls174T cells; [19]) [nM]	IC50 [9, 20] [nM]	other results
CC[C@@]1(O)C(=O)OCc2c1cc1n(c2=O)Cc2c-1nc1cc3c(cc1c2CNC[C@@H](O)CO)OCO3 [Compound 7u]	456	66	122	128	60	26	50	108	19	86	707	–
CC[C@@]1(O)C(=O)OCc2c1cc1n(c2=O)Cc2c-1nc1cc(F)c(SC)cc1c2CN [Compound 2at]	–	–	–	–	–	–	–	–	–	–	–	IC50 [10]: 37 nM
CC[C@@]1(O)C(=O)OCc2c1cc1n(c2=O)Cc2c-1nc1cc3c(cc1c2CNCCCN(C)C(=O)OC(C)(C)C)OCO3 [Compound 7a]	–	–	–	–	–	–	–	–	–	–	–	IC50 ([1]; camptothecin free drug, 96 h, read-out: MOLM-13 IC50): 223 nM; IC50 ([2]; camptothecin free drug, 96 h, read-out: SU-DHL-4 IC50): 64 nM; IC50 ([3]; camptothecin free drug, 96 h, read-out: 786-O IC50): 111 nM; IC50 ([4]; camptothecin free drug, 96 h, read-out: Karpas299 IC50): 135 nM; IC50 ([5]; camptothecin free drug, read-out: L540cy IC50): 52 nM; IC50 ([6]; camptothecin free drug, read-out: DEL IC50): 25 nM; IC50 ([7]; camptothecin free drug, read-out: DELBVR IC50): 49 nM; IC50 ([8]; camptothecin free drug, 96 h, read-out: BxPC3 IC50): 81 nM; IC50 (melanoma cells (A2058); camptothecin free drug, 96 h): 23 nM; IC50 (Ls174T cells; camptothecin free drug, read-out: Ls174T IC50): 74 nM; IC50 ([9]; camptothecin free drug, 96 h, read-out: MDAMB231 IC50): 390 nM
CC[C@@]1(O)C(=O)OCc2c1cc1n(c2=O)Cc2c-1nc1cc3c(cc1c2CNC1CCOCC1)OCO3 [Compound 7k]	34	19	57	46	20	6	14	63	14	67	207	–
CC[C@@]1(O)C(=O)OCc2c1cc1n(c2=O)Cc2c-1nc1cc3c(cc1c2CNCC(O)CN1CCOCC1)OCO3 (stereo partly shown) [Compound 7i]	312	72	128	154	63	38	51	106	33	72	1000	IC50 ([1]; read-out: MOLM-13 IC50, Table 29, CPT free drugs, acute myeloid leukemia cells MOLM-13, 96 h, CellTiter-Glo): 183 nM; IC50 ([2]; read-out: SU-DHL-4 IC50, Table 29, CPT free drugs, B-lymphocyte cancer cells SU-DHL4, 96 h, CellTiter-Glo): 32 nM; IC50 ([3]; read-out: 786-O IC50, Table 29, CPT free drugs, renal carcinoma cells 786-O, 96 h, CellTiter-Glo): 118 nM; IC50 ([4]; read-out: Karpas299 IC50, Table 29, CPT free drugs, anaplastic large cell lymphoma cells Karpas299, 96 h, CellTiter-Glo): 84 nM; IC50 ([5]; read-out: L540cy IC50, Table 29, CPT free drugs, Hodgkin's lymphoma cells L540cy, CellTiter-Glo): 48 nM; IC50 ([6]; read-out: DEL IC50, Table 29, CPT free drugs, anaplastic large cell lymphoma cells DEL, CellTiter-Glo): 9 nM; IC50 ([7]; read-out: DELBVR IC50, Table 29, CPT free drugs, anaplastic large cell lymphoma cells DELBVR, CellTiter-Glo): 17 nM; IC50 ([8]; read-out: BxPC3 IC50, Table 29, CPT free drugs, pancreatic cancer cells BxPC3, 96 h, CellTiter-Glo): 57 nM; IC50 (Ls174T cells; read-out: Ls174T IC50, Table 29, CPT free drugs, Ls174T cells, CellTiter-Glo): 110 nM; IC50 ([9]; read-out: MDAMB231 IC50, Table 29, CPT free drugs, breast cancer cells MDA-MB-231, 96 h, CellTiter-Glo): 183 nM
